Data as given in ChEMBL document CHEMBL1128754, “The SAR of 6-(N-alkyl-N-acyl)-2-propyl-3-[(2-tetrazol-5-yl)biphen-4-yl)methyl]-quinazolinones as balanced affinity antagonists of the human AT1 and AT2 receptors” (Bioorg Med Chem Lett, 1995).
Changes are numbered by the printed parent chain.

Assays:
[1] = molecular target: Angiotensin II receptor (Homo sapiens) (UniProt P30556+P50052); test: Ratio of receptor binding affinity AT2/AT1 in human adrenal tissue in th+e presence of 2 mg/ml bovine serum albumin; assay type: protein assay
[2] = molecular target: T1, Type-1 angiotensin II receptor (Oryctolagus cuniculus, UniProt P34976); test: biochemical
T1 sequence (P34976 whole entry): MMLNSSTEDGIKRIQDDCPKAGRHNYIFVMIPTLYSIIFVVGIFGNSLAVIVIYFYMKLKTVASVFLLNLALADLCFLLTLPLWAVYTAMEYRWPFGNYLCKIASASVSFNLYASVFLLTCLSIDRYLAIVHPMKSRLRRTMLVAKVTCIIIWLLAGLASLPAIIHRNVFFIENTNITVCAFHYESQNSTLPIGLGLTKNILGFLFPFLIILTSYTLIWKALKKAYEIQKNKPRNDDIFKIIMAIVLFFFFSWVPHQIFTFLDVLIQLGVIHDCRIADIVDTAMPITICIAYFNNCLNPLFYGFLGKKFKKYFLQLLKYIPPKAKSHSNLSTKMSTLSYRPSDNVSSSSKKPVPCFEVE
Description: Binding affinity against AT1 receptor in rabbit aorta

Rattus norvegicus [3] = species: Rattus norvegicus; details: dose 1 mg/kg; route oral
[4] = molecular target: T2, Angiotensin II receptor (AT-1) type-1 (Rattus norvegicus, UniProt P29089+P25095); test: Binding affinity against AT1 receptor in rat adrenal tissue; assay type: tissue-based
T2 sequence (P29089 whole entry): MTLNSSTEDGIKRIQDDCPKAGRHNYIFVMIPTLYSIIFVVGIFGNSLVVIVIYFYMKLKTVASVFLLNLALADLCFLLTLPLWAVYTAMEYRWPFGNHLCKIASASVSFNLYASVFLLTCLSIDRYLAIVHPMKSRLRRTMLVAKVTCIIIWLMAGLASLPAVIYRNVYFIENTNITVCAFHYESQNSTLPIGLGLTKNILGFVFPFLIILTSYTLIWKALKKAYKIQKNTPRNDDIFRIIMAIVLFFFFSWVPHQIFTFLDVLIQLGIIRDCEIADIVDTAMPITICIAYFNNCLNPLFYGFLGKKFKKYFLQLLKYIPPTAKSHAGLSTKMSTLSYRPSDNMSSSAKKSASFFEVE
T2 sequence (P25095 whole entry): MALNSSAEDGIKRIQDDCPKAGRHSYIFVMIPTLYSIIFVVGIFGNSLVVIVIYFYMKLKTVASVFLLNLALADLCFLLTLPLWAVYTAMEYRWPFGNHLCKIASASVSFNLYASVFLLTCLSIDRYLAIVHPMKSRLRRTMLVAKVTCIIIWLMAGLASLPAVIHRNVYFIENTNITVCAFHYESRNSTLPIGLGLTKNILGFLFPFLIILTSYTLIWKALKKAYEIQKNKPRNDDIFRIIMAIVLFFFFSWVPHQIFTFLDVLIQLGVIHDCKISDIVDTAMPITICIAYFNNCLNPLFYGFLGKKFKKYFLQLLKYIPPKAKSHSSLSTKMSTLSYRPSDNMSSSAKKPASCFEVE

physchem = details: octanol/water
Description: Partition coefficient (logP)

[5] = molecular target: Angiotensin II receptor (Rattus norvegicus) (UniProt P29089+P25095+P35351); test: Ratio of receptor binding affinity AT2/AT1 in rat adrenal tissue
Rattus norvegicus [6] = species: Rattus norvegicus; details: dose 1 mg/kg; route intravenous
[7] = molecular target: T3, Type-1 angiotensin II receptor (Homo sapiens, UniProt P30556); test: biochemical
T3 sequence (P30556 whole entry): T1 sequence (P34976 whole entry) with M2I, A49V, V254I, V270I, H272R, K311R, S349T, V353A
Description: Binding affinity against AT1 receptor in human adrenal tissue

[8] = Bioavailability in dog (dose of 1.0 mg/kg i.v.) 0.5 hr; assay type: ADME, organism-based, Canis lupus familiaris; details: in vivo, iv
[9] = Bioavailability in dog (dose 3.0 mg/kg p.o.); assay type: ADME, organism-based, Canis lupus familiaris; details: in vivo, po

- Ratio [1]: 1.3
- IC50 [2]: 1.7 nM
- IC50 [4]: 0.3 nM
- logP (physchem): 3.4
- Ratio [5]: 2.1
- IC50 [7]: 0.9 nM
- bioavailability [8]: 84%
- bioavailability [9]: 56%
Structure (SMILES): Cn1nnnc1-c1ccccc1-c1ccc(Cn2cnc3ccc(N(Cc4cccnc4)C(=O)c4ccccc4)cc3c2=O)cc1
- Duration (Rattus norvegicus [3]): >3 h
- Duration (Rattus norvegicus [6]): >3 h
